Data from US20250011319A1, “SUBSTITUTED 1H-PYRAZOLO [4,3-c] QUINOLINES, METHODS OF PREPARATION, AND USE THEREOF” (Lomond Therapeutics, Inc., priority 2021, published 2025).
Read-outs that look alike come from different tables or passages of the source.

Assays:
recombinant HPK1 protein = recombinant HPK1 protein (Homo sapiens (Human), UniProt Q92918); assay: Primary HPK1 enzymatic inhibition (ADP-Glo luminescence); assay type: biochemical; details: recombinant HPK1, MBP substrate, 1 hour at room temperature
Experimental: Example A. Primary Assay used to determine potency of HPK1 enzymatic activity inhibition. Compound activity was determined using recombinant HPK1 protein and MBP Substrate (both Promega, Cat #V6398) in an in vitro enzymatic reaction. The enzymatic assay used to determine activity was a Luminescence assay using a Microplate Reader ClarioStar Plus. The enzymatic reaction was carried out in assay buffer (40 mM TRIS-HCl pH 7.4-7.6, 20 mM MgCl2, 0.05 mM DTT, 0.1 mg/ml BSA). The compounds were dispensed on a 384 well Diamond Well Plate (Axigen, Cat #P-384-120SQ-C—S) using the Biomek FX liquid handling system at 100× solutions of compounds in DMSO. 2×HPK1-MBP mix (final concentration 0.64 ng/μl of HPK1 and 45 ng/μl of MBP) was prepared in 1× Assay buffer and 5.5 μl of mixture per well was added into 384 w white Reaction plate with NBS (Corning, Cat #4513). 5.5 μl of MBP substrate w/o HPK1 in 1× buffer was used for negative control. Plates were centrifuged for 1 min at 100 g. Next step the Compounds were added to Reaction plate using Biomek station via following steps: 1l of 100× compounds (in DMSO) were mixed thoroughly with 49 ul of 2×10 uM ATP in Assay Buffer, then 5.5 μl of this mixture was added to Reaction plate with 5.5 μl of HPK1-MBP mix. Plates were centrifuged for 1 min at 100 g and incubated for 1 hour at room temperature. Next 3 μL of ADP-Glo reagent (Promega, ADP-Glo™ Kinase Assay, Cat #V9102) per well was added. Plates were incubated for 30 minutes at room temperature. Then 6 μL of Kinase detection reagent (Promega, ADP-Glo™ Kinase Assay, Cat #V9102) per well was added and the Luminescence was measured using Microplate Reader. The % inhibition was then used to calculate the IC50 values.

MV4-11 cell lines = assay: MV4-11 Cytotoxicity Assay (CellTiter-Glo); assay type: cell-based; details: Homo sapiens, read-out: MV4-11, CC50
Experimental: Example B. MV4-11 Cytotoxicity Assay. CC50 was determined using MV4-11 cell lines in RPMI-1640 culture medium (PanEco cat #C363). Compounds were prepared as 200× stocks with serial dilution in 100% DMSO with a final concentration of 1×. Dispersed 40 μL in 384-well plates at a concentration of 4000 cells per well using a robotic station Biomek (Beckman). Before adding compounds, the cells were incubated at 37° C. A dilution plate was prepared by pouring 78 μl of the appropriate culture medium using a robotic station Biomek (Beckman). Sequentially, using a robotic station, 2 μl of substances were taken and added to 78 μl of culture medium (dilution of compounds 40×). Took from there 10 μl and added to the plates to the cells (dilution of compounds 5×). The plates were incubated for 3 days at a temperature 37° C. After 3 days, 10 μl of CellTiter-Glo (Promega) was added to the cells and the luminescence was measured.

MOLM-13 = MOLM-13 Cytotoxicity Assay; assay type: cell-based; details: Homo sapiens
Experimental: Example C. MOLM-13 Cytotoxicity Assay. Assay was performed according the procedure described in O. A. Elgamal et al. J. Hematol. Oncol. 2020, 13, 8 (https://doi.org/10.1186/s13045-019-0821-7).

FLT3 (wt) = FLT3 (wt) (Homo sapiens (Human), UniProt P36888); assay: FLT3 kinase radiometric HotSpot assay, FLT3 (wt); assay type: biochemical
Experimental: (§1) Example D. FLT3 inhibitory activity and cytotoxicity. This assay was used to determine potency of FLT3 enzymatic activity inhibition. Corresponding biochemical inhibition of enzymatic activities of FLT3 (wt), FLT3 (D835Y), and FLT3 (ITD) were measured using recombinant protein constructs of kinase domains via activity based FLT3 kinase assay for compound screening and profiling via radiometric HotSpot™ kinase assay (Reaction Biology). Peptide substrate [[…]]. Compounds were dissolved to 10 mM in DMSO. Compounds were tested in 10-dose IC50 mode with a 3-fold serial dilution starting at 0.3 μM. […] Reactions were carried out at 1 μM ATP. The estimated Ki values were calculated by using the formula presented below, which is applicable for ATP competitive inhibitors: Ki=IC50/(1+[S]/Km). […] In Table E shown HEK293 cytotoxicity.

FLT3 (D835Y) = FLT3 (D835Y) (Homo sapiens (Human), UniProt P36888, D835Y); assay: FLT3 kinase radiometric HotSpot assay, FLT3 (D835Y); assay type: biochemical
Experimental: as §1

FLT3 (ITD) = FLT3 (ITD) (Homo sapiens, UniProt P36888, ITD); assay: FLT3 kinase radiometric HotSpot assay, FLT3 (ITD); assay type: biochemical
HEK293 cytotoxicity = assay type: cell-based; details: human, HEK293 cells
Experimental: as §1

[1] = 72 h, MV4-11 cells, 3 days, CellTiter-Glo
[2] = MOLM-13 cells, read-out: MOLM-13, CC50

Chain of recombinant HPK1 protein (Q92918 whole entry): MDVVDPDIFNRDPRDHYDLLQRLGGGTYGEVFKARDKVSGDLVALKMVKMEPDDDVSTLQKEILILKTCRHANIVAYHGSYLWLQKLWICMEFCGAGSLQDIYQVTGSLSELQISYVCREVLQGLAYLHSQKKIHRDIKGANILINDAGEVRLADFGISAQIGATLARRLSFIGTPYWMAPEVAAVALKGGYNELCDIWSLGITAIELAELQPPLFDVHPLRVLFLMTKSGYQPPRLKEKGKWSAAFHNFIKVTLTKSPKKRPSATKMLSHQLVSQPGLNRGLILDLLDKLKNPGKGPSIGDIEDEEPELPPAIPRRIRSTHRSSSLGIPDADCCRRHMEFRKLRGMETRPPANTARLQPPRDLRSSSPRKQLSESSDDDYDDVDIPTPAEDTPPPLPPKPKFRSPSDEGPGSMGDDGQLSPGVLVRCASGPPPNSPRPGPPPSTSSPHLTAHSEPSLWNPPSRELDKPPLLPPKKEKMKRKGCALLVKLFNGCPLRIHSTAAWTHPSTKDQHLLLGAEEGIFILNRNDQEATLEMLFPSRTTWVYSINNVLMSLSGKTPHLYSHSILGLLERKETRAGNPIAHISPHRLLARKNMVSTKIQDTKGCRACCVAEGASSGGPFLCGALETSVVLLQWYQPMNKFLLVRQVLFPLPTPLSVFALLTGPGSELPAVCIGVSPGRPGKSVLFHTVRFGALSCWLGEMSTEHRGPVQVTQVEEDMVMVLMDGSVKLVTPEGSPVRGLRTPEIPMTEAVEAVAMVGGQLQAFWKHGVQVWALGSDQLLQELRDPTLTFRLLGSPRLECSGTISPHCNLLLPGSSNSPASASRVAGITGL

| Compound | Ki (recombinant HPK1 protein) | CC50 (MV4-11 cell lines; [1]) | CC50 (MOLM-13; [2]) | Ki (FLT3 (wt)) | Ki (FLT3 (D835Y)) | other results |
| --- | --- | --- | --- | --- | --- | --- |
| COc1ccc2ncc3c(-c4ccc(N5CCN(C)CC5)cc4)nn(-c4ccc(C)c(C)c4)c3c2c1 [Compound 1.16, 1-{4-[1-(3,4-dimethylphenyl)-8-methoxy-1H-pyrazolo[4,3-c]quinolin-3-yl]phenyl}-4-methylpiperazine] | 10 to 20 nM | 50 to 100 nM | < 500 nM | – | – | – |
| COc1ccc2ncc3c(-c4ccc(N(C)CCCN(C)C)cc4)nn(-c4ccc(C)c(C)c4)c3c2c1 [Compound 1.18, N-[3-(dimethylamino)propyl]-4-[1-(3,4-dimethylphenyl)-8-methoxy-1H-pyrazolo[4,3-c]quinolin-3-yl]-N-methylaniline] | 20 to 50 nM | 100 to 500 nM | > 5000 nM | – | – | – |
| COc1ccc2ncc3c(-c4ccc(OC)c(OC)c4)nn(-c4ccc5c(c4)CNC5)c3c2c1 [Compound 1.36, 5-[3-(3,4-dimethoxyphenyl)-8-methoxy-1H-pyrazolo[4,3-c]quinolin-1-yl]-2,3-dihydro-1H-isoindole] | < 10 nM | – | – | < 0.5 nM | < 0.5 nM | Ki (FLT3 (ITD); read-out: Ki, nM FLT3 (ITD)): 0.5 to 2 nM; CC50 (HEK293 cytotoxicity): < 10000 nM |
| COc1ccc2ncc3c(-c4ccc(OC)c(OC)c4)nn(-c4ccc5c(c4)CCNC5)c3c2c1 [Compound 1.35, 6-[3-(3,4-dimethoxyphenyl)-8-methoxy-1H-pyrazolo[4,3-c]quinolin-1-yl]-1,2,3,4-tetrahydroisoquinoline] | < 10 nM | – | – | < 0.5 nM | < 0.5 nM | Ki (FLT3 (ITD); read-out: Ki, nM FLT3 (ITD)): 0.5 to 2 nM; CC50 (HEK293 cytotoxicity): < 10000 nM |
| COc1ccc2ncc3c(-c4cccc(N5CCC(N(C)C)CC5)c4)nn(-c4ccc(C)c(C)c4)c3c2c1 [Compound 1.1, 1-{3-[1-(3,4-dimethylphenyl)-8-methoxy-1H-pyrazolo[4,3-c]quinolin-3-yl]phenyl}-N,N-dimethylpiperidin-4-amine] | 10 to 20 nM | > 500 nM | 1000 to 5000 nM | – | – | – |
| COc1ccc2ncc3c(-c4ccc(OCCN(C)C)c(OC)c4)nn(-c4ccc(C)c(C)c4)c3c2c1 [Compound 1.24, (2-{4-[1-(3,4-dimethylphenyl)-8-methoxy-1H-pyrazolo[4,3-c]quinolin-3-yl]-2-methoxyphenoxy}ethyl)dimethylamine] | 10 to 20 nM | – | – | – | – | CC50 (MV4-11 cell lines; MV4-11, 72 h): < 50 nM; CC50 (MOLM-13; MOLM-13, read-out: MOLM-13, CC50): < 500 nM |
| Cc1ccc(-n2nc(-c3ccc(N4CCN(C)CC4)cc3)c3cnc4ccccc4c32)cc1C [Compound 1.21, 1-{4-[1-(3,4-dimethylphenyl)-1H-pyrazolo[4,3-c]quinolin-3-yl]phenyl}-4-methylpiperazine] | ≥ 50 nM | 100 to 500 nM | 1000 to 5000 nM | – | – | – |
| COc1ccc2ncc3c(-c4ccc(OCCCN5CCOCC5)c(OC)c4)nn(-c4ccc(C)c(C)c4)c3c2c1 [Compound 1.26, 4-(3-{4-[1-(3,4-dimethylphenyl)-8-methoxy-1H-pyrazolo[4,3-c]quinolin-3-yl]-2-methoxyphenoxy}propyl)morpholine] | 20 to 50 nM | 50 to 100 nM | 500 to 1000 nM | – | – | – |
| COc1ccc2ncc3c(-c4ccc(OCCN5CCOCC5)c(OC)c4)nn(-c4ccc(C)c(C)c4)c3c2c1 [Compound 1.25, 4-(2-{4-[1-(3,4-dimethylphenyl)-8-methoxy-1H-pyrazolo[4,3-c]quinolin-3-yl]-2-methoxyphenoxy}ethyl)morpholine] | 20 to 50 nM | 100 to 500 nM | 1000 to 5000 nM | – | – | – |
| COc1ccc(-c2nn(-c3ccc4c(c3)CNC4)c3c2cnc2ccccc23)cc1OC [Compound 1.33, 5-[3-(3,4-dimethoxyphenyl)-1H-pyrazolo[4,3-c]quinolin-1-yl]-2,3-dihydro-1H-isoindole] | – | – | – | 0.5 to 2 nM | < 0.5 nM | Ki (FLT3 (ITD)): 2 to 5 nM; CC50 (HEK293 cytotoxicity): ≥ 50000 nM |
| COc1ccc2ncc3c(-c4ccc(OC)c(OC)c4)nn(-c4ccc5c(c4)CNCC5)c3c2c1 [Compound 1.34, 7-[3-(3,4-dimethoxyphenyl)-8-methoxy-1H-pyrazolo[4,3-c]quinolin-1-yl]-1,2,3,4-tetrahydroisoquinoline] | – | – | – | < 0.5 nM | < 0.5 nM | Ki (FLT3 (ITD); read-out: Ki, nM FLT3 (ITD)): < 0.5 nM |
| Cc1ccc(-n2nc(-c3ccc(N4CCNCC4)cc3)c3cnc4ccccc4c32)cc1C [Compound 1.22, 1-{4-[1-(3,4-dimethylphenyl)-1H-pyrazolo[4,3-c]quinolin-3-yl]phenyl}piperazine] | ≥ 50 nM | 100 to 500 nM | 1000 to 5000 nM | – | – | – |
| COc1ccc2ncc3c(-c4cccc(N5CCN(C)CC5)c4)nn(-c4ccc(C)c(C)c4)c3c2c1 [Compound 1.3, 1-{3-[1-(3,4-dimethylphenyl)-8-methoxy-1H-pyrazolo[4,3-c]quinolin-3-yl]phenyl}-4-methylpiperazine] | 10 to 20 nM | 100 to 500 nM | > 5000 nM | – | – | – |
| COc1ccc(-c2nn(-c3ccc4c(c3)CCNC4)c3c2cnc2ccccc23)cc1OC [Compound 1.32, 6-[3-(3,4-dimethoxyphenyl)-1H-pyrazolo[4,3-c]quinolin-1-yl]-1,2,3,4-tetrahydroisoquinoline] | – | – | – | 0.5 to 2 nM | 0.5 to 2 nM | Ki (FLT3 (ITD)): > 5 nM; CC50 (HEK293 cytotoxicity): 10000 to 50000 nM |
| COc1ccc(-c2nn(-c3ccc4c(c3)CNCC4)c3c2cnc2ccccc23)cc1OC [Compound 1.31, 7-[3-(3,4-dimethoxyphenyl)-1H-pyrazolo[4,3-c]quinolin-1-yl]-1,2,3,4-tetrahydroisoquinoline] | – | – | – | < 0.5 nM | < 0.5 nM | Ki (FLT3 (ITD)): 0.5 to 2 nM; CC50 (HEK293 cytotoxicity): < 10000 nM |
| COc1ccc2ncc3c(-c4ccc(N5CCC(N(C)C)CC5)cc4)nn(-c4ccc(C)c(C)c4)c3c2c1 [Compound 1.17, 1-{4-[1-(3,4-dimethylphenyl)-8-methoxy-1H-pyrazolo[4,3-c]quinolin-3-yl]phenyl}-N,N-dimethylpiperidin-4-amine] | 10 to 20 nM | 50 to 100 nM | – | – | – | – |
| COc1ccc2ncc3c(-c4cccc(N5CCC(N(C)C)CC5)c4)nn(-c4cccc(C)c4C)c3c2c1 [Compound 1.14, 1-{3-[1-(2,3-dimethylphenyl)-8-methoxy-1H-pyrazolo[4,3-c]quinolin-3-yl]phenyl}-N,N-dimethylpiperidin-4-amine] | < 10 nM | > 500 nM | – | – | – | – |
